Measured values from ChEMBL document CHEMBL1124385, “A new series of tricyclic (aryloximino)propanolamines displaying very high selective beta 2-blocking properties” (J Med Chem, 1989).

Key:
[1] = biological target: Beta-2 adrenergic receptor (Cavia porcellus, UniProt Q8K4Z4); assay: Beta-2 adrenergic receptor blocking was assessed from 50% inhibition of the isoproterenol submaximal response on isolated Guinea pig trachea(IT)
[2] = biological target: Beta-1 adrenergic receptor (Cavia porcellus, UniProt B0FL73); assay: Beta-1 adrenergic receptor blocking was assessed from 50% inhibition of the isoproterenol submaximal response on isolated Guinea pig atria(IA)
Chain of Beta-1 adrenergic receptor (B0FL73 whole entry): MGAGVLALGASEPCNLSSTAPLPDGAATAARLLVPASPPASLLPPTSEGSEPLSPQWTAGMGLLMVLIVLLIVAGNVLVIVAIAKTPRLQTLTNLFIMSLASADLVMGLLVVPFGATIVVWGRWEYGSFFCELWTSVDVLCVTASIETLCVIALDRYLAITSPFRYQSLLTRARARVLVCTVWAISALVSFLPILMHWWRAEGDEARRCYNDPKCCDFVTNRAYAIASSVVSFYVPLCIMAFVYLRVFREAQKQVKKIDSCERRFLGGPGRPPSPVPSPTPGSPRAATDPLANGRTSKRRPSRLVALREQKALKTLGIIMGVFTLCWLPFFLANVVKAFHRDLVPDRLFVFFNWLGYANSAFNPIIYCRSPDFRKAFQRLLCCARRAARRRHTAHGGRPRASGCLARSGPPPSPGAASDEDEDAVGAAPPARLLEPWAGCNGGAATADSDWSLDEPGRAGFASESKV

[3] = Selectivity, ratio of IC50 on guinea pig atria and guinea pig trachea

Chain of Beta-2 adrenergic receptor (Q8K4Z4 whole entry): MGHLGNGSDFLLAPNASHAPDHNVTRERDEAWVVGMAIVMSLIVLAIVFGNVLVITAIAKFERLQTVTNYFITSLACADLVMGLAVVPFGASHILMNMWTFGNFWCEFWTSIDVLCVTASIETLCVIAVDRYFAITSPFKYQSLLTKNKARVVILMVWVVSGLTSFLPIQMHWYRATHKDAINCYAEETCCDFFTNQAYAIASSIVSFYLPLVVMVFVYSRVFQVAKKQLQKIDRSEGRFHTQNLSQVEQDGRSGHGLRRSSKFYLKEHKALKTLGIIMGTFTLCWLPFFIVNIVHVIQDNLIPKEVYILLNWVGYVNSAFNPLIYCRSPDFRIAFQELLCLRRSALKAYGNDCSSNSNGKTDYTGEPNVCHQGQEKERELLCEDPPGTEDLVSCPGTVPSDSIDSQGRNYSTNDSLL

| Structure (SMILES) | IC50 [1] | IC50 [2] | Ratio [3] |
| --- | --- | --- | --- |
| COc1cc(CCNCC(O)CO/N=C2/c3cc(F)ccc3C3CCCCC23OC)cc(OC)c1 (stereo unspecified) | > 10 µM | > 10 µM | – |
| CC(C)(C)NCC(O)CO/N=C1/c2ccccc2C2CCCCC12O (stereo unspecified) | 31 µM | 2.8 µM | 0.09 |
| CC(C)(C)NCC(O)CO/N=C1/c2ccccc2C2CCCCCC12O (stereo unspecified) | 0.44 µM | 0.34 µM | – |
| COC12CCCCCCCCCC1c1ccccc1/C2=N/OCC(O)CNC(C)C (stereo unspecified) | > 10 µM | > 10 µM | – |
| COC12CCCCCC1c1ccccc1/C2=N/OCC(O)CNC(C)C (stereo unspecified) | 0.035 µM | 3 µM | – |
| COC12CCCCC1c1ccc(F)cc1/C2=N/OCC(O)CNC(C)(C)C (stereo unspecified) | 0.45 µM | 0.83 µM | – |
| COc1cc(CCNCC(O)CO/N=C2/c3ccccc3C3CCCCCCCCCC23OC)cc(OC)c1 (stereo unspecified) | > 10 µM | > 10 µM | – |
| CC(C)NCC(O)CO/N=C1/c2ccccc2C2CCCCCC12OCCO (stereo unspecified) | > 10 µM | > 10 µM | – |
| CC(C)(C)NCC(O)CO/N=C1/c2ccccc2C2CCCCCC12OCCO (stereo unspecified) | 7.9 µM | > 1 µM | – |
| COC12CCCCC1c1ccccc1/C2=N/OCC(O)CNC(C)C (stereo unspecified) | 0.3 µM | 1.2 µM | – |
| COC12CCCCCC1c1ccccc1/C2=N/OCC(O)CNC(C)(C)C (stereo unspecified) | 0.44 µM | 0.16 µM | – |
| CC(C)NCC(O)CO/N=C1/c2ccccc2C2CCCCC12OCCO (stereo unspecified) | > 10 µM | > 10 µM | – |
| CC(C)NCC(O)CO/N=C1/c2ccccc2C2CCCCCC12O (stereo unspecified) | > 10 µM | 0.89 µM | – |
| COc1cc(CCNCC(O)CO/N=C2/c3ccccc3C3CCCCCC23OC)cc(OC)c1 (stereo unspecified) | > 10 µM | 13 µM | – |
| COc1cc(CCNCC(O)CO/N=C2/c3ccccc3C3CCCCC23OC)cc(OC)c1 (stereo unspecified) | > 10 µM | > 10 µM | – |
| COC12CCCCC1c1ccccc1/C2=N/OCC(O)CNC(C)(C)C (stereo unspecified) | 0.035 µM | 12 µM | 33 |
| CC(C)(C)NCC(O)CO/N=C1/c2ccccc2C2CCCCC12OCCO (stereo unspecified) | 3.1 µM | 0.85 µM | 0.28 |
| CC(C)NCC(O)CO/N=C1/c2ccccc2C2CCCCC12O (stereo unspecified) | > 10 µM | > 10 µM | – |
| COC12CCCCC1c1ccc(F)cc1/C2=N/OCC(O)CNC(C)C (stereo unspecified) | 0.79 µM | 19 µM | – |
